Reference: US20100286076A1, “ECTOPARASITICIDAL METHODS AND FORMULATIONS” (priority 2009, published 2010)
Read-outs that look alike come from different tables or passages of the source.

Columns and labels:
House Fly = experiment: Adult House Fly Assay (AhsF), feeding on compound-soaked dental wicks, 24 h mortality; parameters: species or system Musca domestica; conditions: 24 h, read-out: Potency (24 h EC50 μM)
Description: Adult Stable or House Fly Assay (ASF, AhsF). This assay is conducted essentially as described in White, W. H., S. M. Bauer, X. Zhao et al., Comparison of in vitro and in vivo ectoparasiticide activity of an experimental benzimidazole-carbamate with permethrin and amitraz, J. Med. Entomol. 42, 207-211 (2005); and White, W. H., C. M. McCoy, J. A. Meyer et al., Knockdown and mortality comparisons among spinosad-, imidacloprid-, and methomyl-containing baits against susceptible Musca domestica (Diptera: Muscidae) under laboratory conditions, J. Econ. Entomol. 100, 155-163 (2007).
Test material is formulated in DMSO at 10 mM. Doubling dilutions in like solvent are made to yield 10 testing levels. Materials are diluted in either bovine serum (stable flies) or 5% glucose solution (house flies) to obtain desired exposure concentrations from 200-0.39 μM. Approximately 3 ml of diluted test material is placed into a test tube (n=3 per test level) and a dental wick is used to absorb fluid. One dental wick is placed into a small weigh boat inside of a 100 mm Petri dish. Approximately 10 mixed-sex adult flies are anesthetized using carbon dioxide and counted into each dish. Dishes are incubated at 27° C. and 50-70% relative humidity. Flies recover from anesthesia and feed on compound-soaked dental wicks. After 24 h, live/dead flies are enumerated. Nonlinear regression is used to model dose-mortality relationship and obtain relative potency (LD50) data compared to contemporaneous controls (solvent-only or permethrin).

[1] = tested on: adult cat flea, Ctenocephalides felis; conditions: dogs, historical data, not contemporaneous controls, cited from earlier work

| Compound | EC50 (House Fly; adult house flies, 5% glucose solution) | geometric mean percent flea reduction, Day 7 ([1]; Day 7) | geometric mean percent flea reduction, Day 14 ([1]; Day 14) | geometric mean percent flea reduction, Day 21 ([1]; Day 21) | geometric mean percent flea reduction, Day 30 ([1]; Day 30) | geometric mean percent flea reduction, Day 37 ([1]; Day 37) | geometric mean percent flea reduction, Knockdown ([1]; Knockdown) | EC50 (House Fly; Musca domestica) |
| --- | --- | --- | --- | --- | --- | --- | --- | --- |
| Spinosad | 12 µM | 100% | 99.6% | 100% | 97.8% | 91.1% | 100% | – |
| N#Cc1nn(-c2c(Cl)cc(C(F)(F)F)cc2Cl)c(N)c1[S+]([O-])C(F)(F)F (centres unmarked) [Fipronil, reference compound] | – | – | – | – | – | – | – | 0.97 µM |
